Test results reported in patent publication EP1543832A2, “Use of trans-4[4-(3-chloro-4-methoxy-benzylamino) benzothieno[2,3-d]pyrimidin-2-yl]-cyclohexanecarboxylic acid in the treatment of extrapyramidal movement disorders” (MERCK PATENT GmbH, priority 2003, dated 2005).
Structures can show the parent of a compound that is named as a salt.

Key:
[1] = system: advanced idiopathic Parkinson's disease complicated by "peak-dose" dyskinesia; test: Double-blind cross-over study, peak-dose dyskinesia after l-dopa challenge in advanced idiopathic Parkinson's disease; assay type: in vivo, patients; details: first hour in the "on" state after l-dopa challenge; add-on 2.5 to 10 mg b.i.d. versus placebo
Description: A typical study to investigate the efficacy of the compounds according to the invention for adverse effects in Parkinson's disease is described in the following. 40 patients of either sex with advanced idiopathic Parkinson's disease complicated by "peak-dose" dyskinesia participate in a double-blind, cross-over study. The main inclusion criteria are Hoehn & Yahr stage ≥ 2.5 (lit.: Hoehn H.M. et al, Neurology 1967; 17: 427-442), aged 40-75 years, symptom duration of at least 5 years, and a I-dopa treatment duration of at least 3 years. trans-4-[4-(3-chloro-4-methoxybenzylamino)-benzothieno-[2,3-d]pyrimidin-2-yl]cyclohexanecarboxylic acid sodium or ethanolamine salt or placebo is administered as "add on" to the conventional Parkinson treatment; which is maintained unchanged during the whole study. The dose of blinded medication is titrated over a period of 3 weeks in a range from 2.5 to 10 mg b.i.d. Then the medication is kept constant for 1 week. Before the start of titration and at the end of the treatment period a I-dopa challenge is performed according to P. Damier et al. (Movement Disord,1999, 14 (Suppl. 1), 54-59) using video recording. The main outcome measure of the protocol is the mean score for dyskinesia during the first hour in the "on" state after I-dopa challenge. […]

[2] = system: idiopathic Parkinson's disease; test: Double-blind add-on study in idiopathic Parkinson's disease (UPDRS); assay type: in vivo, patients; details: add-on 2.5 to 10 mg b.i.d. versus placebo
Description: A typical study to investigate the efficacy of the compounds according to the invention in the treatment of idiopathic Parkinson's disease is described in the following. 180 patients of either sex with idiopathic Parkinson's disease participate in a double-blind study. The main inclusion criteria are Hoehn & Yahr stage ≥ 2.0 (Hoehn H.M. et al, Neurology 1967; 17: 427-442), aged 50-80 years, symptom duration of at least 5 years. Trans-4-[4-(3-chloro-4-methoxybenzylamino)-benzothieno-[2,3-d]pyrimidin-2-yl]cyclohexanecarboxylic acid or placebo is administered as "add on" to the conventional Parkinson treatment, which is maintained unchanged during the whole study. The dose of blinded medication is titrated over a period of 4 weeks in a range from 2.5 to 10 mg b.i.d. Then the medication is kept constant for 1 week. Before the start of titration, at the end of the treatment period and 2 weeks after the end of the tiration period an assessment is performed in each patients using the unified Parkinson's disease rating scale (UPDRS part I to V according to S. Fahn et al., in: Recent developments in Parkinson's disease, vol. 2, MacMillan health information 1987, 153-163). […]

MSA patients = test: Placebo-controlled cross-over add-on study in MSA patients (UPDRS); assay type: in vivo; details: add-on 2.5 to 20 mg b.i.d. versus placebo
Description: A typical study to investigate the efficacy of the compounds according to the invention in MSA patients encompasses 30 patients of either sex with a symptom duration of at least 5 years and a significant reduction of central dopamine receptors in positron emission tomography (PET) scan. The study design is similar to that described above for Parkinson's disease. Trans-4-[4-(3-chloro-4-methoxybenzylamino)-benzothieno-[2,3-d]pyrimidin-2-yl]cyclohexanecarboxylic acid sodium or ethanolamine salt or placebo is titrated as "add on" to the conventional treatment (dose range 2.5 to 20 mg b.i.d.). Before the start of titration and at the end of the treatment period a complete UPDRS assessment is performed in each patient (primary outcome measure). After a 2-week wash-out period the two study arms are crossed over and the protocol is repeated.

tardive dyskinesia = test: Double-blind cross-over add-on study in tardive dyskinesia (AIMS); assay type: in vivo, schizophrenic (DSM-III-R) inpatients; details: add-on to antipsychotic treatment, 2.5 to 20 mg b.i.d., compared with placebo period
Description: Tardive dyskinesia is a common adverse effect of long-term treatment with neuroleptics. A typical study to investigate the efficacy of the compounds according to the invention in tardive dyskinesia is described in the following. 32 schizophrenic (DSM-III-R) inpatients aged 25 - 60 years on long-term stable antipsychotic treatment (duration of at least 5 years) entered the study. Trans-4-[4-(3-chloro-4-methoxybenzylamino)-benzothieno-[2,3-d]pyrimidin-2-yl]cyclohexanecarboxylic acid sodium or ethanolamine salt or placebo is administered as "add on" to the antipsychotic treatment, which is kept constant during the whole study. The dose of blinded medication is titrated over a period of 3 weeks in a range from 2.5 to 20 mg b.i.d. Then the medication is maintained under double-blind conditions for 2 weeks. After a 2-week wash-out period, the test drugs are crossed over. Assessments of tardive dyskinesia by means of the Abnormal Involuntary Movement Scale (AIMS, see obove) and of Parkinsonian extrapyramidal side effects (UPDRS, see above) are made pretreatment and posttreatment.

In the case of `COc1ccc(CNc2nc([C@H]3CC[C@H](C(=O)O)CC3)nc3sc4ccccc4c23)cc1Cl` [trans-4-[4-(3-chloro-4-methoxybenzylamino)-benzothieno-[2,3-d]pyrimidin-2-yl]cyclohexanecarboxylic acid sodium or ethanolamine salt], the mean dyskinesia scores [1] is reported as “significant clinical improvement”, the UPDRS scores [2] is reported as “significant clinical improvement” and the UPDRS (MSA patients) is reported as “significant clinical improvement”. For the same compound, the AIMS scores (tardive dyskinesia) was “significantly lower than during placebo period”.
